What was measured:
Format in all cases: in vivo
[1] = test system: soybean cotyledons (cultivar Williams); assay: Soybean cut cotyledon assay: loading of daidzein conjugate / isoflavone pools; settings: for Percent increase in total daidzein conjugate pools compared to a water control (Table 2) / Percent increase in total daidzein conjugate pools compared to a water control (Table 4): 33 uM, average of two experiments
Protocol: (§1) The cut cotyledon assay is used to investigate both the ability of the nuclear receptor ligand to activate basal elicitation competency in plants, and to evaluate the ability of a second compound such as the glucan defense elicitor from the fungal pathogen Phytophthora sojae to enhance glyceollin elicitation competency in plants in which the isoflavone pools were “loaded” by the action of the ligand. The level of isoflavones in the cotyledon tissues are measured after the addition of different nuclear receptor ligands to determine the effectiveness of each in inducing the basal production of isoflavones in cotyledon tissues. In such studies, the addition of the nuclear receptor ligand first “primes” the cut cotyledon, i.e., increases the levels of the isoflavone daidzen. That is, the competency for the elicitation of the phytoalexin glyceollin in response to the glucan elicitor from Phytophthora sojae is already partially activated. This means that increases in the isoflavone daidzein, which is the precursor for glyceollin, are usually rapidly shunted into glyceollin when the glucan defense elicitor is added to the system. Thus, the ability of the ligand to enhance glyceollin elicitation competency by “loading” the isoflavone pools can also be measured.
(§2) Cotyledons from 7-8 day old soybean seedlings are removed from the plant and cut on the lower surface to expose subepidermal tissues. A 30 p,L drop of test compound (elicitor and/or loader) is placed on the cut surface. Ten cotyledons are used per treatment and arranged in a petri plate containing a wet filter paper to keep the cotyledons moist. After incubation at room temperature at approximately 200 p.Einsteins of light for 48 hr the cotyledon tissues are harvested for analysis. Tissues for analysis are harvested by cutting a vertical column of cells from the cotyledon using a number 1 cork borer. The column of cells is then subsampled by cutting slices of cells progressively away from the original cut surface. The first section is approximately 4 cell layers thick and the second two are approximately 8 cell layers thick. These allow the examination of proximal and distal effects of treatments, respectively. Tissues are analyzed by HPLC as noted below. Full details of this assay can be found in the publication: Graham, T. L., and Graham, M. Y. 1991. Glyceollin Elicitors Induce Major But Distinctly Different Shifts in Isoflavonoid Metabolism in Local and Distal Cell Populations. Molecular Plant Microbe Interactions 4:60-68, which is specifically incorporated herein by reference.
(§3) High performance liquid chromatography (HPLC) is the . method of choice for determining the levels of isoflavone defense compounds in soybean. With a single HPLC analysis, one gets a complete and quantitative profile of up to 50 or more aromatic compounds, including all the isoflavones and their conjugates and the phytoalexins, including glyceollin. As little as 20 mg of plant tissue is needed and the method can be readily applied to cotyledon, leaf or any soybean tissue. This analytical method allows us to determine the nmoles/gm of each metabolite, which can then readily be processed to compare the percent increase or decrease of a given metabolite in comparison to either water or glucan treated control tissues. Routinely, tissues are extracted in 80% ethanol and subjected to water/acetonitrile gradient elution from a C18 reverse phase HPLC column. Full details of this procedure can be found in the publication: Graham, T. L. 1991. A Rapid, High Resolution High Performance Liquid Chromatography Profiling Procedure for Plant and Microbial Aromatic Secondary Metabolites. Plant Physiology 95:584-593, which is specifically incorporated herein by reference.
(§4) Cotyledons (10 per treatment) from 7 day old Williams variety soybean were treated with a formulation comprising estrogens, estrogen agonists, and peroxisome proliferators. […]

[2] = test system: soybean cotyledons (cultivar Williams); assay: Soybean cut cotyledon assay: potentiation of glyceollin (phytoalexin) elicitation by glucan elicitor; settings: 33 uM, applied immediately before glucan elicitor and 10 uM orthovanadate, 48 hr, average of two experiments
Protocol: as §1, §2, §3, §4

[3] = test system: soybean cotyledons (cultivar Williams); assay: Soybean snapped cotyledon assay: loading of isoflavone (daidzein) conjugate pools
Protocol: The snapped cotyledon assay is a minimal wound assay used to investigate the effects of test compounds in a non-primed background. The assay is performed by snapping cotyledons in two and placing the petiole side down in 0.5% water agar. Ten snapped cotyledons are used per treatment, and the subepidermal cells exposed by snapping are treated with glucan defense elicitor and/or the effector being examined. The cotyledons are incubated in the light for 48 hr as in the cut cotyledon assay. Both proximal (first cell layer) and distal (second and third cell layers) are harvested for analysis by HPLC (see below). Full details of this assay can be found in the publication: Graham, T. L. and Graham, M. Y. 1996. Signaling in soybean phenylpropanoid responses: dissection of primary, secondary and conditioning-effects of light, wounding and elicitor treatments. Plant Physiol. 110:1123-1133, which is specifically incorporated herein by reference.
The snapped cotyledon assay is “naive”. That is, it is not pre-disposed or primed for competency for the elicitation of phytoalexin glyceollin in response to the glucan elicitor. Thus, treatment with the glucan elicitor induces the formation of the isoflavones daidzein and genistein, but very little glyceollin. This is an excellent assay to study the effects of a chemical treatment on isoflavone metabolism by itself or in combination with the glucan. In the absence of the glucan, it gives an excellent picture of the effects of the compound alone on isoflavone metabolism. In the presence of the glucan, it tells us if the test compound can induce elicitation competency for the glyceollin response to the glucan.
as §3
Cotyledons (10 per treatment) from 7 day old Williams variety soybean were treated with a formulation comprising estrogens, estrogen agonists, and peroxisome proliferators. Each NRL was dissolved either in water or first in isopropanol to give a saturated solution followed by rapid dilution in water. […] NRLs were tested over a concentration range of about 10 uM to 1 mM, using serial 3 fold dilutions from 1 mM. NRLs were tested both alone and in the presence of 30 ug/ml of the glucan elicitor from the fungal pathogen Phytophthora sojae. Concentrations of the NRL and glucan noted here are final concentrations on the treated cotyledon.
The exposed surface of each snapped cotyledon was treated with 7 μL of the NRL followed by 7 μL of the glucan or water. Cotyledons were incubated in constant light (200 t;,Einsetins) for 48 hr. At 48 hr, a thin (translucent) section was harvested from the treated cotyledon surface. Sections from the 10 cotyledons for each treatment were pooled and extracted in 80% ethanol (400 μL for each 50 mG fresh weight). The extract was then subjected to HPLC as described above. […]

[4] = test system: cotyledons of lima bean, mung bean, green bean, peanuts, and chickpeas; assay: Cut cotyledon assay on legumes other than soybean: increase in isoflavones; settings: ergosterol at 100 p,M; range in each plant species; isoflavones identified by ultraviolet spectra
[5] = test system: soybean primary leaves; assay: Soybean leaf infiltration: isoflavone increases after ergosterol treatment; settings: 48 hours, over control
Protocol: as §3
True leaves of soybean plants are also treated as described above in Example 1. For tests on true leaves of soybean or other plants, two methods are used. In the laboratory a small spot on the leaves is vacuum filtrated using a filter disc platform hooked to a water aspirator. The leaf is placed on the filter disc platform and mild suction applied. A drop of the glucan elicitor and the nuclear receptor ligand formulation is then placed on the exposed surface of the leaf and allowed to infiltrate the tissue through the leaf stomatal pores. For the greenhouse or field, the nuclear receptor ligand is added to a surfactant to emulsify and disperse the ligand. In all of these assays, the tissues are again analyzed by HPLC as described above.
Moreover, the isoflavone formononetin is normally found only as a trace metabolite in soybean tissues. It is commonly found in chickpea. Treatment of soybean leaves with a nuclear receptor ligand, however, caused very significant accumulations of daidzein and formononetin aglycones and genistein conjugates. […] Ergosterol was directly infiltrated into the primary leaves, which were analyzed after 48 hours.

[6] = cut cotyledon assay, Williams cotyledons, concentrations 50-500 p,M
[7] = 33 uM, average of two experiments
[8] = ergosterol 1 micromolar infiltrated into primary leaves
[9] = ergosterol 10 micromolar infiltrated into primary leaves
[10] = ergosterol 100 micromolar infiltrated into primary leaves

| Structure (SMILES) | Range of increase of isoflavones over the concentration range [1, 6] | Percent increase in glyceollin elicitation compared to a glucan elicitor control [2] [%] | Percent increase in total daidzein conjugate pools compared to a water control (Table 2) ([1]; cut cotyledon assay) [%] | Percent increase in total daidzein conjugate pools compared to a water control (Table 4) ([1]; cut cotyledon assay) [%] | Percent increase in daidzein conjugate pools compared to a water control (Table 3) [3, 7] | also measured |
| --- | --- | --- | --- | --- | --- | --- |
| CC(=O)[C@H]1CC[C@H]2[C@@H]3CC=C4C[C@@H](O)CC[C@]4(C)[C@H]3CC[C@]12C [5-pregnenolone] | 5-20% |  |  |  |  |  |
| C[C@]12CC[C@@H]3c4ccc(O)cc4CC[C@H]3[C@@H]1CC[C@@H]2O [Beta-Estradiol, 17-beta-estradiol] |  | 205 | 64 | 64 | +64% |  |
| CC(C)(Oc1ccccc1Cl)C(=O)O [CPMPA, 2-(o-chlorophenoxy)-2-methylpropionic acid] |  |  |  |  | +42% |  |
| CC(C)(Oc1ccc(C2CC2(Cl)Cl)cc1)C(=O)O (centres unmarked) [Ciprofibrate, ciprofibrate] |  | 199 | 52 | 52 | +52% |  |
| O=c1oc2cc(O)ccc2c2oc3cc(O)ccc3c12 [Coumestrol] |  | 226 | 54 | 54 |  |  |
| C/C=C(/C(=C/C)c1ccc(O)cc1)c1ccc(O)cc1 [Dienestrol, dienestrol] |  | 75 | 28 | 28 | +28% |  |
| CC/C(=C(/CC)c1ccc(O)cc1)c1ccc(O)cc1 [Diethylstilbestrol, diethylstilbestrol] |  | 86 | 36 | 38 |  |  |
| CC(C)[C@@H](C)/C=C/[C@@H](C)[C@H]1CC[C@H]2C3=CC=C4C[C@@H](O)CC[C@]4(C)[C@H]3CC[C@]12C [Ergosterol, ergosterol] |  | 260 | 60 | 60 | +60% | Increases in isoflavones [4]: 2-60 fold; Increase in Daidzein Aglycone [5, 8]: 5X; Increase in Formononetin Aglycone [5, 8]: 24X; Increase in Genistein Conjugates [5, 8]: 2X; Increase in Daidzein Aglycone [5, 9]: 3X; Increase in Formononetin Aglycone [5, 9]: 27X; Increase in Genistein Conjugates [5, 9]: 1.1X; Increase in Daidzein Aglycone [5, 10]: 2.4X; Increase in Formononetin Aglycone [5, 10]: 4X; Increase in Genistein Conjugates [5, 10]: None |
| C[C@]12CC[C@@H]3c4ccc(O)cc4CC[C@H]3[C@@H]1C[C@@H](O)[C@@H]2O [Estriol, estriol] |  | 177 | 45 | 45 | +45% |  |
| O=c1c(-c2ccc(O)cc2)coc2cc(O)cc(O)c12 [Genistein, genistein] |  |  |  |  |  | Percent increase in daidzein conjugate pools compared to a water control (Table 3) ([3]; genistein applied as smaller doses on an hourly basis for 8 hours): +54% |
| CC(=O)[C@H]1CC[C@H]2[C@@H]3CCC4=CC(=O)CC[C@]4(C)[C@H]3CC[C@]12C [Progesterone, progesterone] | 20-60% |  |  |  |  |  |
| C[C@H]1CCCC(=O)CCC/C=C/c2cc(O)cc(O)c2C(=O)O1 [Zearalenone, zearalenone] |  | 242 | 58 | 58 |  |  |
| C[C@]12CC[C@@H](O)C[C@@H]1CC[C@@H]1[C@@H]2CC[C@]2(C)C(=O)CC[C@@H]12 [androsterone] |  |  |  |  |  | Range of increase of isoflavones over the concentration range ([1]; in vivo): 30-40% |
| C[C@]12CCC(=O)C=C1CC[C@@H]1[C@@H]2C(=O)C[C@@]2(C)[C@H]1CC[C@]2(O)C(=O)CO [cortisone] | 30-100% |  |  |  |  |  |
| C[C@@H]1C[C@H]2[C@@H]3CCC4=CC(=O)C=C[C@]4(C)[C@@]3(F)[C@@H](O)C[C@]2(C)[C@@]1(O)C(=O)CO [dexamethasone] | 0-10% |  |  |  |  |  |
| C[C@]12CCC(=O)C=C1CC[C@@H]1[C@@H]2[C@@H](O)C[C@@]2(C)[C@H]1CC[C@]2(O)C(=O)CO [hydrocortisone] | 25-50% |  |  |  |  |  |
